The values that follow are results of earlier work, collected in patent publication US20070065414A1, “Enhanced delivery of cells” (Boston Scientific Scimed, Inc., priority 2005, published 2007).

For this series the following is noted: general statement, no experiment described.

Structures are written as SMILES.

Turning to `Nc1ncnc2c1ncn2[C@@H]1O[C@H](CO)[C@@H](O)[C@H]1O` [Adenosine, adenosine], the blood pool half-life result is listed as “only a few seconds”.
